This is an account of results in article PMC5423501 (The Oncologist, 2017).

Entries after “also recorded” stand apart in the source; their conditions may differ. Like-named read-outs stand apart in the source and are kept apart here.

Data set [1] can be described thus: Steady-state plasma pharmacokinetics, cycle 1 day 8. In kind it is in vivo, human.
Data set [2] relates to patients with HIV and cancer. Particulars: cited from earlier work.
The subject of data set [3] is Kaposi sarcoma. Put plainly: KS response assessment. The format is in vivo, human.
Data set [4] has as its system patients with HIV and HCC. Particulars: 27 patients with HIV and HCC, 400 mg sorafenib twice daily, retrospective; cited from earlier work.
Data set [5] relates to patients with Kaposi sarcoma. Particulars: in vivo.
For data set [6], the system named is bFGF. Put plainly: Serum factors, V-Plex assay, baseline vs end of cycle 1. The format is in vivo, human. The conditions noted are these: baseline to end of cycle 1; p = .018.
The test system of data set [7] is IL‐12p40. The data set is described as above. The format is in vivo, human. The conditions noted are these: baseline to end of cycle 1; p = .002.
Data set [8] concerns patients with HCC. The conditions noted are these: phase III trial in HCC; cited from earlier work.

As to `CNC(=O)c1cc(Oc2ccc(NC(=O)Nc3ccc(Cl)c(C(F)(F)F)c3)cc2)cc[n+]1[O-]` [Sorafenib N-Oxide, Sorafenib N‐oxide], the “decrease of AUCTAU of sorafenib-N-oxide in patients receiving ritonavir” value in data set [1] (trend, p = .08) is 3.8 fold.

`CCN(CC)CCNC(=O)c1c(C)[nH]c(/C=C2\C(=O)Nc3ccc(F)cc32)c1C` [sunitinib]: the tolerability entry was “tolerated standard dosing” in data set [2] (HIV patients not taking ritonavir) and “higher toxicities at lower doses” in data set [2] (patients receiving ritonavir). Moreover, the “effect of ritonavir on sunitinib and active metabolite” value in data set [2] (patients with HIV and cancer) was “decreases in the sunitinib active metabolite but not the parent drug”.

In the case of `CNC(=O)c1cc(Oc2ccc(NC(=O)Nc3ccc(Cl)c(C(F)(F)F)c3)cc2)ccn1` [Sorafenib], in data set [3] (2/7, 95% CI 4%–71%), the “ORR in patients evaluable for response” value was 29%. In addition, the “ORR in all patients” value in data set [3] (2/10, 95% CI 3%–56%) is 20%. In data set [3] (range 1–5, 21-day cycles), the “Median duration of SD” value stood at 4 cycles. Also, in data set [4], the “diarrhea, grade 3–4 AE” value is given as 15%; the “hypertension, grade 3–4 AE” value is recorded as 11%; the “palmar-plantar erythrodysesthesia syndrome, grade 3–4 AE” value is given as 15%. Besides, the “patients with grade 3 toxicities that did not meet DLT criteria” value in data set [5] is “five”. Further, the “change in serum bFGF” value in data set [6] is recorded as “potential trend towards decreased bFGF”. Further, the “change in serum IL-12p40” value in data set [7] is “statistically significant decrease”. The “CMAX and AUC0-12h of sorafenib compared with literature” value in data set [1] (200 mg dose at steady state) is listed as “within reported ranges”. Further, the “effect of ritonavir on steady-state AUCTAU (exposure) of sorafenib” value in data set [1] (cohort on ritonavir vs not on ritonavir) is on record as “not significantly affected by ritonavir; also recorded: only modestly affected”. Moreover, in data set [8], the “diarrhea, grade 3–4 AE” value is 8%; the “hypertension, grade 3–4 AE” value is 2%; the “palmar-plantar erythrodysesthesia syndrome, grade 3–4 AE” value is 8%.
